From PMC10581193 (Microbiology Spectrum, 2023)
Like-named read-outs stand apart in the source and are kept apart here.

Experiments:
Y17 = type: cell-based, M. tuberculosis
Y48 = type: cell-based, M. tuberculosis
Y198 = type: cell-based, M. tuberculosis
DprE1 = DprE1 (Mycobacterium tuberculosis, UniProt P9WJF1, Y314H); design: species or system M. tuberculosis H37Ra

Row | Compound | Drug resistance of clinical isolate (Y48; strain Y48) | Drug resistance of clinical isolate (Y198; strain Y198) | also measured
1 | CO[C@H]1/C=C/O[C@@]2(C)Oc3c(C)c(O)c4c(O)c(c(/C=N/N5CCN(C)CC5)c(O)c4c3C2=O)NC(=O)/C(C)=C\C=C\[C@H](C)[C@H](O)[C@@H](C)[C@@H](O)[C@@H](C)[C@H](OC(C)=O)[C@@H]1C [RMP, rifampicin] |  |  | Drug resistance of clinical isolate (Y17): R; Drug resistance of clinical isolate (Y48): R; Drug resistance of clinical isolate (Y198): R
2 | NNC(=O)c1ccncc1 [INH, isoniazid] | R | R | Drug resistance of clinical isolate (Y17; strain Y17): R
3 | [H]/N=C(/N)N[C@H]1[C@H](O)[C@@H](O)[C@H](O[C@@H]2O[C@@H](C)[C@](O)(C=O)[C@H]2O[C@@H]2O[C@@H](CO)[C@H](O)[C@@H](O)[C@@H]2NC)[C@@H](N/C(N)=N\[H])[C@@H]1O [SM, streptomycin] |  | R | 
4 | CC[C@@H](CO)NCCN[C@@H](CC)CO [EMB, ethambutol] | R | R | 
5 | NC(=O)c1cnccn1 [PZA, pyrazinamide] |  | R | 
6 | CO[C@H]1/C=C/O[C@@]2(C)Oc3c(C)c(O)c4c(c3C2=O)C2=NC3(CCN(CC(C)C)CC3)NC2=C(NC(=O)/C(C)=C\C=C\[C@H](C)[C@H](O)[C@@H](C)[C@@H](O)[C@@H](C)[C@H](OC(C)=O)[C@@H]1C)C4=O [RFB, rifabutin] |  | R | 
7 | CO[C@H]1/C=C/O[C@@]2(C)Oc3c(C)c(O)c4c(O)c(c(/C=N/N5CCN(C6CCCC6)CC5)c(O)c4c3C2=O)NC(=O)/C(C)=C\C=C\[C@H](C)[C@H](O)[C@@H](C)[C@@H](O)[C@@H](C)[C@H](OC(C)=O)[C@@H]1C [RFT, rifapentine] |  | R | 
8 | Nc1ccc(C(=O)O)c(O)c1 [PA, p-aminosalicylic acid] | S | R | 
9 | COc1ncnc(Cn2cc(C(=O)NCCO)c3ncc(C)cc32)c1C [TBA-7371, reference compound] |  |  | Amino-acid substitution (DprE1): Tyr→His
10 | Cc1nc(C)c(CN2CCOc3c(C(=O)NCC(F)(F)F)cc(C4CC4)cc32)nc1C [B18, 6-cyclopropyl-N-(2,2,2-trifluoroethyl)-4-((3,5,6-trimethylpyrazin-2-yl)methyl)-3,4-dihydro-2H-benzo[b][1,4]oxazine-8-carboxamide] |  |  | Amino-acid substitution (DprE1): Tyr→His
